# Source: patent US8273900B2, “Organic compounds” (Novartis AG, priority 2008, dated 2012)
# Target: T1, human recombinant CRF-1 receptor (Homo sapiens, UniProt P34998)
# T1 construct: expressed in transfected cells; host or cells: CHO cells (G418-selected)
# T1 sequence (P34998 24-415): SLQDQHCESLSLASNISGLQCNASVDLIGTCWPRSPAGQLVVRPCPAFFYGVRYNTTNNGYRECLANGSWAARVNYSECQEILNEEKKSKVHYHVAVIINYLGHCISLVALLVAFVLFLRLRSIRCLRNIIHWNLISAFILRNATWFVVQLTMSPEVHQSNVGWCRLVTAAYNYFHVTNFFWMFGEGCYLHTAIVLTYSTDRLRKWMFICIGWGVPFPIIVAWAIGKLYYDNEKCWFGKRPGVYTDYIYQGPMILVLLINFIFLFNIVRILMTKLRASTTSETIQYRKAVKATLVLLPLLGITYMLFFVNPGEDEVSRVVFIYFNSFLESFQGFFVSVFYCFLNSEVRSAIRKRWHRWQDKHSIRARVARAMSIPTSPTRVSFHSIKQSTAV
# Assay: CRF-1 receptor antagonism, HTRF cAMP assay in CHO cells in the presence of 1 nM CRF
# Format: cell-based
# Details: CHO cells expressing human recombinant CRF-1; inhibition of the effect of 1 nM CRF on cAMP
# Description: The CRF-1 or CRF-2α receptor antagonistic activity of the agents of the invention has been determined in vitro in the following assay:
# Chinese hamster ovary (CHO) cells expressing either the human recombinant CRF-1 or CRF-2a receptors (Chen et al., Proc Natl Acad Sci USA 90, 8967-8971, 1993; Liaw et al., Endocrinology 137, 72-77, 1996) are propagated in Dulbecco's modified Eagle medium supplemented with 10% foetal calf serum, non-essential amino acids, 100 U/ml penicillin, 100 mg/l streptomycin and 1 g/l geneticin (G418). For cyclic AMP determinations the Homogeneous Time-Resolved Fluoresce (HTRF) cAMP dynamic 2 kit (Cisbio International, France) was used as per manufacturers' instructions. CHO cells, previously cryopreserved, were thawed, centrifuged for 7 mins at 1200 rpm and resuspended in serum free media, then pipetted out onto clear bottomed black tissue culture treated 384-well microtitre plates (Corning Inc, US) at 2,000 cells per well. Compounds of the invention, prepared in DMSO, and subsequently diluted 50 fold in assay buffer (1× Hanks balanced salt solution, 0.2% (w/v) bovine serum albumin, 1.7 mM isobutylmethylxanthine and 10 mM Hepes, pH 7.4) are then added onto the cell containing plate where a further 2 fold dilution is performed and incubated for 15 min. Following incubation, buffer containing a 5 times final concentration of agonist is added to the plate and incubated for 30 min. Finally, d2 dye labelled cAMP and cryptate labeled anti-cAMP antibody, both made in lysis buffer, are added to the plate followed by a settling period of 1 hour. During the settling period cAMP produced by the cells competes with the d2 labelled cAMP for the anti-cAMP cryptate. The plate is read on the Pherastar (BMG, Germany). Increasing levels of endogenous cAMP produced by cells can be followed by a decrease of fluorescent signal and vice versa. Values represented by a change in arbitrary fluorescence units are converted into cAMP concentrations by use of a standard curve the reagents for which are supplied with the kit. Antagonist dose response curves (1 nM-30 μM) are constructed in the presence of 1 nM CRF. IC50 values of antagonists are calculated by fitting the percent inhibition of the effect of CRF by increasing concentrations of the antagonists. The fit is performed using the nonlinear logistic function of the Activitybase software package v 5.4.5.27 (IDBS, UK).
row,IC50 [µM],Structure (SMILES)
1,0.036,"Cc1cnc(NC[C@H]2CC[C@H](NC(=O)c3cc(C(F)(F)F)ccc3Cl)CC2)s1 [Example 2.5, Trans-2-Chloro-N-{4-[(5-methyl-thiazol-2-ylamino)-methyl]-cyclohexyl}-5-trifluoromethyl-benzamide]"
2,0.061,"CCCc1cc(NC[C@H]2CC[C@H](NC(=O)c3cc(C(F)(F)F)ccc3Cl)CC2)n[nH]1 [Example 4.15, Trans-2-Chloro-N-{4-[(5-propyl-1H-pyrazol-3-ylamino)-methyl]-cyclohexyl}-5-trifluoromethyl-benzamide]"
3,0.114,"O=C(N[C@H]1CC[C@H](Cn2ncc3ccccc32)CC1)c1cc(C(F)(F)F)ccc1Cl [Example 21.1, N-(4-((1H-indazol-1-yl)methyl)cyclohexyl)-2-chloro-5-(trifluoromethyl) benzamide]"
4,0.034,"Cc1n[nH]c(NC[C@H]2CC[C@H](NC(=O)c3cc(C(F)(F)F)ccc3Cl)CC2)c1Cl [Example 19.114, Trans-2-Chloro-N-{4-[(4-chloro-5-methyl-2H-pyrazol-3-ylamino)-methyl]-cyclohexyl}-5-trifluoromethyl-benzamide]"
5,0.037,"Cc1c(NC[C@H]2CC[C@H](NC(=O)c3cc(C(F)(F)F)ccc3Cl)CC2)n[nH]c1-c1ccccc1 [Example 19.79, Trans-2-chloro-N-(4-((4-methyl-5-phenyl-1H-pyrazol-3-ylamino)methyl)cyclohexyl)-5-(trifluoromethyl) benzamide]"
6,0.032,"COc1ccc2c(NC[C@H]3CC[C@H](NC(=O)c4cc(C(F)(F)F)ccc4Cl)CC3)n[nH]c2c1 [Example 19.68, Trans-2-chloro-N-(4-((6-methoxy-1H-indazol-3-ylamino)methyl)cyclohexyl)-5-(trifluoromethyl) benzamide]"
7,0.013,"Cc1cc(NC[C@H]2CC[C@H](NC(=O)c3cc(C(F)(F)F)ccc3Cl)CC2)ncc1F [Example 19.26, Trans-2-chloro-N-(4-((5-fluoro-4-methylpyridin-2-ylamino)methyl)cyclohexyl)-5-(trifluoromethyl) benzamide]"
8,0.019,"Cc1ncc(Cl)cc1NC[C@H]1CC[C@H](NC(=O)c2cc(C(F)(F)F)ccc2Cl)CC1 [Example 19.73, Trans-2-chloro-N-(4-((5-chloro-2-methylpyridin-3-ylamino)methyl)cyclohexyl)-5-(trifluoromethyl) benzamide]"
9,0.038,"Cc1cc(NC[C@H]2CC[C@H](NC(=O)c3cc(Cl)cnc3C)CC2)ncc1Cl [Example 19.83, Trans-5-chloro-N-(4-((5-chloro-4-methylpyridin-2-ylamino)methyl)cyclohexyl)-2-methyl-nicotinamide]"
10,0.153,"COc1ncc(Cl)cc1NC[C@H]1CC[C@H](NC(=O)c2cc(C(F)(F)F)ccc2Cl)CC1 [Example 19.113, Trans-2-Chloro-N-{4-[(5-chloro-2-methoxy-pyridin-3-ylamino)-methyl]-cyclohexyl}-5-trifluoromethyl-benzamide]"
11,0.299,"Cc1nc(C)n(C[C@H]2CC[C@H](NC(=O)c3cc(C(F)(F)F)ccc3Cl)CC2)n1 [Example 21.4, 2-Chloro-N-[4-(3,5-dimethyl-[1,2,4]triazol-1-ylmethyl)-cyclohexyl]-5-trifluoromethyl-benzamide]"
12,0.577,"Cc1ncc(Cl)cc1C(=O)N[C@H]1CC[C@H](Cn2nc(C)c(C)c2C)CC1 [Example 18, Trans-5-Chloro-2-methyl-N-[4-(3,4,5-trimethyl-pyrazol-1-ylmethyl)-cyclohexyl]-nicotinamide]"
13,0.038,"Cc1cccnc1NC[C@H]1CC[C@H](NC(=O)c2cc(C(F)(F)F)ccc2Cl)CC1 [Example 1, Trans-2-Chloro-N-{4-[(3-methyl-pyridin-2-ylamino)-methyl]-cyclohexyl}-5-trifluoromethyl-benzamide]"
14,0.234,"O=C(N[C@H]1CC[C@H](Cn2ccc(-c3ccccc3)n2)CC1)c1cc(C(F)(F)F)ccc1Cl [Example 22.3, 2-Chloro-N-[4-(3-phenyl-pyrazol-1-ylmethyl)-cyclohexyl]-5-trifluoromethyl-benzamide]"
15,0.215,"Cc1cc(C)nc(NC[C@H]2CC[C@H](NC(=O)c3cc(C(F)(F)F)ccc3Cl)CC2)c1 [Example 2.6, Trans-2-Chloro-N-{4-[(4,6-dimethyl-pyridin-2-ylamino)-methyl]-cyclohexyl}-5-trifluoromethyl-benzamide]"
16,0.037,"O=C(N[C@H]1CC[C@H](CNc2[nH]ncc2-c2cccnc2)CC1)c1cc(C(F)(F)F)ccc1Cl [Example 19.103, Trans-2-Chloro-N-{4-[(4-pyridin-3-yl-2H-pyrazol-3-ylamino)-methyl]-cyclohexyl}-5-trifluoromethyl-benzamide]"
17,0.029,"O=C(N[C@H]1CC[C@H](CNc2nnnn2-c2ccccc2)CC1)c1cc(C(F)(F)F)ccc1Cl [Example 19.100, Trans-2-Chloro-N-{4-[(1-phenyl-1H-tetrazol-5-ylamino)-methyl]-cyclohexyl}-5-trifluoromethyl-benzamide]"
18,0.063,"CC(C)c1cc(NC[C@H]2CC[C@H](NC(=O)c3cc(C(F)(F)F)ccc3Cl)CC2)n[nH]1 [Example 4.16, Trans-2-Chloro-N-{4-[(5-isopropyl-1H-pyrazol-3-ylamino)-methyl]-cyclohexyl}-5-trifluoromethyl-benzamide]"
19,0.076,"O=C(N[C@H]1CC[C@H](CNc2cccnc2)CC1)c1cc(C(F)(F)F)ccc1Cl [Example 4.21, Trans-2-Chloro-N-[4-(pyridin-3-ylaminomethyl)-cyclohexyl]-5-trifluoromethyl-benzamide]"
20,0.059,"Cc1cc(NC[C@H]2CC[C@H](NC(=O)c3cc(C(F)(F)F)ccc3Cl)CC2)n(-c2ccc(Cl)cc2)n1 [Example 19.116, Trans-2-Chloro-N-(4-{[2-(4-chloro-phenyl)-5-methyl-2H-pyrazol-3-ylamino]-methyl}-cyclohexyl)-5-trifluoromethyl-benzamide]"
21,0.06,"Cc1nc(NC[C@H]2CC[C@H](NC(=O)c3cc(C(F)(F)F)ccc3Cl)CC2)sc1C [Example 3, Trans-2-chloro-N-{4-[(4,5-dimethyl-thiazol-2-ylamino)-methyl]-cyclohexyl}-5-trifluoromethyl-benzamide]"
22,0.041,"Cc1cncc(NC[C@H]2CC[C@H](NC(=O)c3cc(C(F)(F)F)ccc3Cl)CC2)c1 [Example 10, Trans-2-chloro-N-(4-((5-methylpyridin-3-ylamino)methyl)-cyclohexyl)-5-(trifluoromethyl)benzamide]"
23,0.072,"Cc1ncc(Cl)cc1C(=O)N[C@H]1CC[C@H](CNc2ccc(F)cn2)CC1 [Example 19.108, Trans-5-Chloro-N-{4-[(5-fluoro-pyridin-2-ylamino)-methyl]-cyclohexyl}-2-methyl-nicotinamide]"
24,0.053,"Cc1cccc2[nH]nc(NC[C@H]3CC[C@H](NC(=O)c4cc(C(F)(F)F)ccc4Cl)CC3)c12 [Example 19.65, Trans-2-chloro-N-(4-((4-methyl-1H-indazol-3-ylamino)methyl)cyclohexyl)-5-(trifluoromethyl) benzamide]"
25,0.022,"Cc1cc(NC[C@H]2CC[C@H](NC(=O)c3cc(C(F)(F)F)ccc3Cl)CC2)ncc1Cl [Example 19.69, Trans-2-chloro-N-(4-((5-chloro-4-methylpyridin-2-ylamino)methyl)cyclohexyl)-5-(trifluoromethyl) benzamide]"
26,0.14,"Cc1n[nH]c(NC[C@H]2CC[C@H](NC(=O)c3cc(C(F)(F)F)ccc3Cl)CC2)c1-c1ccccc1 [Example 19.71, Trans-2-chloro-N-(4-((3-methyl-4-phenyl-1H-pyrazol-5-ylamino)methyl)cyclohexyl)-5-(trifluoromethyl) benzamide]"

row,Structure (SMILES),IC50 [µM]
1,"CC(Nc1ccccc1)[C@H]1CC[C@H](NC(=O)c2cc(C(F)(F)F)ccc2Cl)CC1 (stereo partly drawn) [Example 15, Trans-2-Chloro-N-[4-(1RS-phenylamino-ethyl)-cyclohexyl]-5-trifluoromethyl-benzamide]",0.108
